Results reported in patent US11384073B2, “Maleate salt of benzothiophene compound, crystalline form thereof, and use thereof” (SHANGHAI INSTITUTE OF MATERIA MEDICA, CHINESE ACADEMY OF …, priority 2018, dated 2022).
Converted amounts (≈) assume the structure as drawn. Read-outs that look alike come from different tables or passages of the source.

Experiments:
[1] = Comparison of appearance and compositions of the compounds; format: physicochemical
Excerpt: The basic compound of compound Z (Example 1) was compared with the different salts of compound Z (Examples 2, 6-12) for their appearance, compositions, crystalline forms, etc., and the results are shown in the following table: […]

[2] = Comparison of stability (Factors influencing test)
[3] = Comparison of hygroscopicity; format: physicochemical; conditions: relative humidity 92.5%, 96 hours; for Moisture gain: room temperature
Method: The basic compound of compound Z (Example 1) and the different salts of compound Z (Examples 2, 4-6, 9) were studied for their hygroscopicity. A certain amount of the test sample was placed in a precisely weighed glass weighing bottle with a stopper, and weighed accurately. The weighing bottle was openly placed in a desiccator (a saturated potassium nitrate solution was placed in the lower part, with a relative humidity of 92.5%), and kept at room temperature for 96 hours, and then the weighing bottle was covered with the stopper and weighed accurately. The moisture gain was calculated.

[4] = Comparison of solubility of the compounds; format: physicochemical
Method: An appropriate amount of a sample was weighted in a glass tube, the selected solvent was added thereto in a gradient and the resultant was observed until it became clear.

Wistar rats = test: Acute toxicity experiments in rats; format: in vivo
Method: Wistar rats were randomly divided into 3 groups with 10 rats in each group. The animals were fasted for 12 hours before the administration, and the muscle relaxation state of the animals was observed 1 hour after the administration. The animal's two forepaws were gripped on a 40 cm-high hemp rope for testing for three times. The case in which the animal could put the hind paws on the rope within 15 s for two or more times was regarded as no muscle relaxation. Otherwise, it was regarded as muscle relaxation. After each animal's muscle relaxation test, a catalepsy experiment was performed, and the “grip rod” experiment method was used to determine the rat's rigidity duration. The rat's two forepaws were gently put on a small rod to test the duration time that the rats maintained their two forepaws on the rod in a 45-degree posture. […] If the rat's forepaw had not been put down, the observation was terminated at 180 s.

[5] = High temperature (60° C.), Day 2
[6] = Illumination (4500 lx ± 500 lx), Day 2

Row | Molecule | Composition [1] | Crystal water [1] | Static electricity [1] | Purity ([2]; Day 0) | Purity [2, 5] | Purity [2, 6] | Moisture gain [3] | Hygroscopicity (in words) [3] | other results
1 | O=c1ccc2ccc(CCN3CCN(c4cccc5sccc45)CC3)cc2[nH]1 [Compound Z, 7-(2-(4-(benzo[b]thiophen-4-yl)piperazin-1-yl)ethyl)quinoline-2(1H)-one] | constant | No | No | 98.07% | 98.03% | 98.01% | −0.16% |  | Stability (in words) ([2]; under high temperature and illumination conditions): high stability; Solubility in deionized water (comparison in words) ([4]; Deionized water): significantly lower than those of the salts of compound Z; Solubility ([4]; buffer pH 2, aqueous buffer, thermodynamic from solid, buffer with pH = 2, read-out: Solubility): 6.8 µg/mL (≈ 17.5 µM); Solubility ([4]; buffer pH 4.5, aqueous buffer, thermodynamic from solid, buffer with pH = 4.5, read-out: Solubility): 0.7 µg/mL (≈ 1.8 µM); Acute toxicity, recovery and animal deaths (comparison in words) (Wistar rats; dose of 200 mg/kg): the highest toxicity, the slowest recovery, and the most animal deaths
2 | O=C(O)/C=C/C(=O)O.O=c1ccc2ccc(CCN3CCN(c4cccc5sccc45)CC3)cc2[nH]1 [Fumarate of compound Z, Fumarate of 7-(2-(4-(benzo[b]thiophen-4-yl)piperazin-1-yl)ethyl)quinoline-2(1H)-one] | constant | No | No |  |  |  |  |  | Solubility ([4]; Deionized water): 117.6 µg/mL; Solubility ([4]; buffer with pH = 2): 2.0 µg/mL; Solubility ([4]; buffer with pH = 4.5): 1.8 µg/mL
3 | CS(=O)(=O)O.O=c1ccc2ccc(CCN3CCN(c4cccc5sccc45)CC3)cc2[nH]1 [Methanesulfonate of compound Z, Methanesulfonate of 7-(2-(4-(benzo[b]thiophen-4-yl)piperazin-1-yl)ethyl)quinoline-2(1H)-one] |  |  |  | 98.60% | 98.47% | 98.54% | 1.74% | relatively high hygroscopicity | Animal status after single administration (rigidity/muscle relaxation) (Wistar rats; gavage 200 mg/kg, 10 per group, Day 7): 5 normal
4 | Cl.O.O=c1ccc2ccc(CCN3CCN(c4cccc5sccc45)CC3)cc2[nH]1 [Monohydrochloride of compound Z, Monohydrochloride Monohydrate of 7-(2-(4-(benzo[b]thiophen-4-yl)piperazin-1-yl)ethyl)quinoline-2(1H)-one] |  |  |  |  |  |  | 7.01% | relatively high hygroscopicity | 
5 | O=P(O)(O)O.O=c1ccc2ccc(CCN3CCN(c4cccc5sccc45)CC3)cc2[nH]1 [Phosphate of compound Z, Phosphate of 7-(2-(4-(benzo[b]thiophen-4-yl)piperazin-1-yl)ethyl)quinoline-2(1H)-one] | constant | No | No |  |  |  |  |  | Solubility ([4]; Deionized water): 181.2 µg/mL; Solubility ([4]; buffer with pH = 2): 2.8 µg/mL; Solubility ([4]; buffer with pH = 4.5): 0.1 µg/mL
6 | O=C(O)CCC(=O)O.O=c1ccc2ccc(CCN3CCN(c4cccc5sccc45)CC3)cc2[nH]1 [Succinate of compound Z, Succinate of 7-(2-(4-(benzo[b]thiophen-4-yl)piperazin-1-yl)ethyl)quinoline-2(1H)-one] |  |  |  | 98.95% | 99.93% | 99.92% | 2.02% |  | 
7 | Citrate of 7-(2-(4-(benzo[b]thiophen-4-yl)piperazin-1-yl)ethyl)quinoline-2(1H)-one [Citrate of compound Z] | constant | No | No |  |  |  | 0.53% | lower hygroscopicity | 
